Laboratory results from patent publication US20210253598A1, “ARYL ANNULATED MACROCYCLIC INDOLE DERIVATIVES” (priority 2017, published 2021).
Read-outs that look alike come from different tables or passages of the source.

How the values were obtained:
[1] = system: SUDHL5; assay: Induction of caspase-3/7 activity in SUDHL5 cells (Assay 4); type: cell-based; details: Homo sapiens, SU-DHL-5, 3 h, SUDHL5, 3 hours treatment, Caspase-Glo 3/7; median; read-out: Caspase SUDHL5 [M] (median)
In short: (§1)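 DLBCL lines SUDHL5 and SUDHL10 were treated with compound for 3 h at 37 °C. Caspase-3/7 activity was then read by Caspase-Glo 3/7 luminescence after 1 h at 37 °C. Medium-only background was subtracted and values were normalized to the mean of DMSO-treated cells.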

[2] = system: SUDHL10; assay: Induction of cytotoxicity in SUDHL10 cells, CellTiter-Glo (Assay 6); type: cell-based; details: Homo sapiens, SU-DHL10, 5 h, SUDHL10, 5 hours incubation, median, read-out: Cytotox SUDHL10 [M] (median)
In short: (§2)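 Cells plated and held overnight at 37° C in a humidified incubator, then compound-treated for 5 hours at 37° C. Viability read by CellTiter-Glo luminescence after 15 minutes shaking at room temperature; cell-free medium served as control.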

[3] = system: SUDHL10; assay: Induction of caspase-3/7 activity in SUDHL10 cells (Assay 4); type: cell-based; details: Homo sapiens, SU-DHL10, 3 h, SUDHL10, 3 hours treatment, Caspase-Glo 3/7; median; read-out: Caspase SUDHL10 [M] (median)
In short: as §1

[4] = system: SUDHL5; assay: Anti-proliferative effect in SUDHL5 cells, CellTiter-Glo (Assay 7); type: cell-based; details: Homo sapiens, SU-DHL-5, 72 h, SUDHL5, 72 hours incubation, CellTiter-Glo; median; read-out: Antiproli SUDHL5 [M] (median)
In short: (§3)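 CellTiter-Glo luminescence after 72 h compound exposure at 37 °C; a parallel time-zero plate was read the same way. IC50 derived relative to day 0 signal and DMSO control.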

[5] = system: A2780; assay: Anti-proliferative effect in A2780 cells, CellTiter-Glo (Assay 7); type: cell-based; details: A2780, 72 hours incubation, CellTiter-Glo, several values per example, read-out: Antiproli A2780
In short: as §3

[6] = target: BCL-2 (Homo sapiens, UniProt P10415); assay: Protein-protein interaction assay BCL-2/Bad BH3 peptide, TR-FRET (BCL-2 assay, Assay 3); type: binding; details: His-BCL-2 / Bad BH3 peptide, median
Method: The dose-dependent inhibition by the compounds described in this invention of the interaction between BCL-2 and the BH3 domain of Bad (both human) was determined using a steady state binding competition assay with time-resolved fluorescence energy transfer (TR-FRET) readout. For that purpose BCL-2 (amino acids 1-211, C-terminal fused to a hexahistidine (6×His) tag (SEQ ID 5) and a synthetic Bad BH3-derived peptide of sequence Biotin-PEG2-PEG2-[sequence]-Nle-[sequence]-amide (SEQ ID 4) served as protein receptor and tracer ligand respectively. The recombinant BCL-2 protein (expressed in E. coli) was purchased from BPS Bioscience (San Diego, Calif., USA). The Bad BH3-derived peptide can be obtained from e.g. Biosyntan (Berlin, Germany).
For that, 100-fold concentrated DMSO solutions were prepared by serial dilutions (1:3.4) of a 2 mM stock solution in a clear, 384-well microtiter plate (Greiner Bio-One, Frickenhausen, Germany). From there, 50 nl were transferred in a dark test plate (Greiner Bio-One, Frickenhausen, Germany). The assay was initiated by addition of 2 μl of a 2,5-fold concentrated His-BCL-2 solution (usually for a 1 nM end concentration in 5 μl reaction volume) in aqueous assay buffer [50 mM Tris/HCl pH 7, 100 mM sodium chloride (NaCl), 50 mM potassium fluoride (KF), 0.005% Tween-20, 2 mM DTT, 0.1% bovine gamma globulin (BGG)] to the compounds in the assay plate. This was followed by a 10-minute incubation step at 22° C. for pre-equilibration of the putative complex between His-BCL-2 and the compounds.
The mixture was incubated in the dark for one hour at 22° C. and then overnight at 4° C. The formation of BCL-2/Bad complexes was determined by measuring the resonance energy transfer of the anti-His-Eu-cryptate antibody to the streptavidin-XL665 present in the reaction. For that purpose, the fluorescence emission at 620 nm and 665 nm after excitation at 330-350 nm was measured in a TR-FRET measuring instrument, for instance a Rubystar or a Pherastar (both from BMG Lab Technologies, Offenburg, Germany) or a Viewlux (Perkin-Elmer). The ratio of the emission at 665 nm and at 622 nm was used as indicator of the amount of BCL-2/Bad complexes present.
(§4) The resulting data (ratio) were normalized, taking 0% inhibition as the mean value of control measurements (usually 32 data points) where all reagents were included. In this case 50 nl DMSO were used instead of compounds. […] IC50 values were determined by regression analysis based on a 4 parameter equation (minimum, maximum, IC50, Hill; Y=Max+(Min−Max)/(1+(X/IC50)^Hill) using the Screener Software (Genedata).

[7] = system: MV-4-11; assay: Anti-proliferative effect in MV-4-11 cells, CellTiter-Glo (Assay 7); type: cell-based; details: MV-4-11, 72 hours incubation, CellTiter-Glo, several values per example, read-out: Antiproli MV-4-11
In short: as §3

[8] = target: MCL-1 (Homo sapiens, UniProt Q07820, K194A/K197A/R201A); assay: Protein-protein interaction assay MCL-1/Noxa BH3 peptide, TR-FRET (MCL-1 assay, Assay 1); type: binding; details: MCL-1 Assay [M] (median), MBP-MCL-1 / Noxa BH3 peptide
In short: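 Human MBP-fused MCL-1 (aa 173-321; 1 nM final) was pre-incubated 10 min at 22 °C with compound in pH 7 Tris buffer containing NaCl, KF, Tween-20, DTT and BGG. Displacement of biotinylated Noxa BH3 peptide was read by TR-FRET (anti-MBP-Eu cryptate/streptavidin-XL665) after 1 h at 22 °C plus overnight at 4 °C. IC50 came from four-parameter fits against DMSO controls.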

[9] = target: BCL-XL (Homo sapiens, UniProt Q07817); assay: Protein-protein interaction assay BCL-XL/Bad BH3 peptide, TR-FRET (BCL-XL assay, Assay 2); type: binding; details: His-BCL-XL / Bad BH3 peptide, median
Method: Protein-Protein Interaction Assay: BCL-XL/Bad BH3 Peptide (BCL-XL Assay)
The dose-dependent inhibition by the compounds described in this invention of the interaction between BCL-XL and the BH3 domain of Bad (both human) was determined using a steady state binding competition assay with time-resolved fluorescence energy transfer (TR-FRET) readout. For that purpose BCL-XL (amino acids 1-212, C-terminal fused to a hexahistidine (6×His) tag (SEQ ID 3) and a synthetic Bad BH3-derived peptide of sequence Biotin-PEG2-PEG2-[sequence]-Nle-[sequence]-amide (SEQ ID 4) served as protein receptor and tracer ligand respectively. The recombinant BCL-XL protein (expressed in E. coli) was purchased from BPS Bioscience (San Diego, Calif., USA). The Bad BH3-derived peptide can be obtained from e.g. Biosyntan (Berlin, Germany).
For that, 100-fold concentrated DMSO solutions were prepared by serial dilutions (1:3.4) of a 2 mM stock solution in a clear, 384-well microtiter plate (Greiner Bio-One, Frickenhausen, Germany). From there, 50 nl were transferred in a dark test plate (Greiner Bio-One, Frickenhausen, Germany). The assay was initiated by addition of 2 μl of a 2,5-fold concentrated His-BCL-XL solution (usually for a 1 nM end concentration in 5 μl reaction volume) in aqueous assay buffer [50 mM Tris/HCl pH 7, 100 mM sodium chloride (NaCl), 50 mM potassium fluoride (KF), 0.005% Tween-20, 2 mM DTT, 0.1% bovine gamma globulin (BGG)] to the compounds in the assay plate. This was followed by a 10-minute incubation step at 22° C. for pre-equilibration of the putative complex between His-BCL-XL and the compounds.
The mixture was incubated in the dark for one hour at 22° C. and then overnight at 4° C. The formation of BCL-XL/Bad complexes was determined by measuring the resonance energy transfer of the anti-His- Eu-cryptate antibody to the streptavidin-XL665 present in the reaction. For that purpose, the fluorescence emission at 620 nm and 665 nm after excitation at 330-350 nm was measured in a TR-FRET measuring instrument, for instance a Rubystar or a Pherastar (both from BMG Lab Technologies, Offenburg, Germany) or a Viewlux (Perkin-Elmer). The ratio of the emission at 665 nm and at 622 nm was used as indicator of the amount of BCL-XL/Bad complexes present.
as §4

[10] = system: SUDHL5; assay: Induction of cytotoxicity in SUDHL5 cells, CellTiter-Glo (Assay 6); type: cell-based; details: Homo sapiens, SU-DHL-5, 5 h, SUDHL5, 5 hours incubation, median, read-out: Cytotox SUDHL5 [M] (median)
In short: as §2

Sequence of BCL-XL (Q07817 1-212): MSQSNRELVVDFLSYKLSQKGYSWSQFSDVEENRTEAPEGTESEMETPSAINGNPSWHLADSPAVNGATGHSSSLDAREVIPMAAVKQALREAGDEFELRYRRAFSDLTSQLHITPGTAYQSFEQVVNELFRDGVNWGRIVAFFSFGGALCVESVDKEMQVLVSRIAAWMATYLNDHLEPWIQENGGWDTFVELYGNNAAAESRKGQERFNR
Sequence of MCL-1 (Q07820 173-321 K194A/K197A/R201A, looked up): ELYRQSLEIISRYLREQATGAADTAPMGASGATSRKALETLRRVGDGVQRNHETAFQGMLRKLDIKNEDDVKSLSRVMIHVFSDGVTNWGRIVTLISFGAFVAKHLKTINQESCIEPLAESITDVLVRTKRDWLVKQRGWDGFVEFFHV
Sequence of BCL-2 (P10415 1-211): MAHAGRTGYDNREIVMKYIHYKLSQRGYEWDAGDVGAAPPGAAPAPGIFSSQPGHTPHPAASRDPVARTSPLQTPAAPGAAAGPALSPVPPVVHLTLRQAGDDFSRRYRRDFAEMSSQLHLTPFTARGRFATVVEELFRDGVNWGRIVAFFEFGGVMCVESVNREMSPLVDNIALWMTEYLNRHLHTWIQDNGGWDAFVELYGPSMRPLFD

SMILES	EC50 [1]	EC50 [3]	IC50 [4]	IC50 [5]	IC50 ([5]; Homo sapiens, A2780, 72 h)	IC50 [6]	IC50 ([7]; Homo sapiens, MV4-11, 72 h)	IC50 [7]	IC50 [8]	IC50 [9]	IC50 [2]	IC50 [10]
CCc1c2c(nn1C)COCc1ccccc1Cn1c(C(=O)O)c(CCCOc3ccc(F)c4ccccc34)c3ccc(F)c-2c31 (racemic) [Example 76, (rac)-14-Ethyl-15-fluoro-1-(3-((4-fluoronaphthalen-1-yl)oxy)propyl)-13-methyl-4,9,11,13-tetrahydrobenzo[3,4]pyrazolo[4′,3′:9,10][1]oxa[6]azacycloundecino[8,7,6-hi]indole-2-carboxylic Acid]	3.3e-06 M	1.3e-05 M	3.7e-06 M	25 µM	16.6 µM	15.8 µM	9.05 µM	10.1 µM	3.1e-09 M	> 20 µM	9.4e-06 M	3.4e-06 M
CCc1c2c(nn1C)COCc1ccccc1Cn1c(C(=O)O)c(CCCOc3cc(C)c(Cl)c(C)c3)c3ccc(F)c-2c31 (racemic) [Example 79, (rac)-1-(3-(4-Chloro-3,5-dimethylphenoxy)propyl)-14-15-fluoro-13-methyl-4,9,11,13-tetrahydrobenzo[3,4]pyrazolo[4′,3′:9,10][1]oxa[6]azacycloundecino[8,7,6-hi]indole-2-carboxylic Acid]	2.9e-06 M	1.3e-05 M	9.2e-06 M	–	17 µM	15.6 µM	2.33 µM	–	2.6e-09 M	19.6 µM	1e-05 M	2.1e-06 M
Cc1cc(OCCCc2c(C(=O)O)n3c4c(c(F)ccc24)-c2c(nn(C)c2C)COCc2ccccc2C3)cc(C)c1Cl [Example 60, (rac)-1-(3-(4-Chloro-3,5-dimethylphenoxy)propyl)-15-fluoro-13,14-dimethyl-4,9,11,13-tetrahydrobenzo[3,4]pyrazolo[4′,3′:9,10][1,6]oxaazacycloundecino[8,7,6-hi]indole-2-carboxylic Acid]	3e-06 M	1.2e-05 M	5.1e-06 M	–	23 µM	19.8 µM	5.75 µM	–	2.9e-09 M	> 20 µM	7.6e-06 M	3.7e-06 M

Second part, led by results:

EC50 [1]	EC50 [3]	IC50 [4]	IC50 [5]	IC50 ([5]; Homo sapiens, A2780, 72 h)	IC50 [6]	IC50 ([7]; Homo sapiens, MV4-11, 72 h)	IC50 [7]	IC50 [8]	IC50 [9]	SMILES	IC50 [2]	IC50 [10]
9.8e-06 M	2.7e-05 M	7.7e-06 M	–	31 µM	> 20 µM	12.5 µM	–	6.2e-09 M	> 20 µM	Cc1nn(C)c2c1-c1c(F)ccc3c(CCCOc4cccc5c4CCC5)c(C(=O)O)n(c13)Cc1ccccc1COC2 (racemic) [Example 84, (rac)-1-(3-((2,3-Dihydro-1H-inden-4-yl)oxy)propyl)-15-fluoro-12,14-dimethyl-4,9,11,12-tetrahydrobenzo[3,4]pyrazolo[4′,3′:9,10][1]oxa[6]azacycloundecino[8,7,6-hi]indole-2-carboxylic Acid]	2.2e-05 M	1.1e-05 M
6.2e-06 M	1.7e-05 M	6e-06 M	–	15.1 µM	13.7 µM	9.93 µM	–	7.4e-09 M	> 20 µM	CCc1nn(C)c2c1-c1c(F)ccc3c(CCCOc4cccc5c4CCCC5)c(C(=O)O)n(c13)Cc1ccccc1COC2 (racemic) [Example 88, (rac)-14-Ethyl-15-fluoro-12-methyl-1-(3-((5,6,7,8-tetrahydronaphthalen-1-yl)oxy)propyl)-4,9,11,12-tetrahydrobenzo[3,4]pyrazolo[4′,3′:9,10][1,6]oxaazacycloundecino[8,7,6-hi]indole-2-carboxylic Acid]	1.5e-05 M	7.4e-06 M
